From publication PMC11462456 (Chemical Science, 2024)

Key:
[1] = molecular target: T1, CRBN (Homo sapiens, UniProt Q96SW2); assay: E3 ligase homo-degradation by western blot, CRBN; type: cell-based; conditions: HEK293 cells, 4 h, 0.1, 1 and 10 μM
T1 construct: western blot analysis of the levels of CRBN and VHL E3 ligase in cell lysate; endogenous in cells; host or cells: HEK293 (ATCC)
Excerpt: (§1) 4. Biological experiments
(§2) Primary antibodies used for western blotting included anti-human BRD2(1:2000, rabbit monoclonal, Abcam, ab139690), anti-human BRD3 (1:1000, rabbit monoclonal, Abcam, ab264420), anti-human BRD4 (E2A7X) (1:1000, rabbit monoclonal, Cell Signaling Technology, #13440), anti-human VHL (1:1000, rabbit polyclonal, Cell Signaling Technology, #68547), anti-human CRBN (D8H3S) (1:1000, rabbit polyclonal, Cell Signaling Technology, #71810), anti-human alpha Tubulin, clone B-5-1-2 (1:5000, mouse monoclonal, Merck Life Science, # 32-2500).Secondary antibodies used for western blot included: anti-mouse horseradish peroxidase-linked antibody (1:3000, sheep, GE Healthcare Life Sciences, #NA931V), and anti-rabbit horseradish peroxidase-linked antibody (1:8000, donkey, GE Healthcare Life Sciences, #NA934V). Reagent for degradation assay and compounds […]
(§3) dr. Serge Van Calenbergh, Ghent University).
4.2 Cell lines and culture
HEK293, A549, SKOV-3, HCT116 cells (ATCC)were grown in DMEM (Gibco),and all cells were supplemented with 10% (v/v) fetal bovine serum (FBS) (Sigma), […] penicillin/streptomycin solution (Thermo Fisher Scientific) and maintained at 37 °C and 5% CO2 in a humidified atmosphere. All cells used were tested monthly using the Mycoalert Mycoplasma Detection Kit (cat. no. LT07-318, Lonza) to exclude mycoplasma contamination.
4.3 Degradation assays by Western blot
General method of Western blot: Lysates were sonicated and centrifuged at 4 °C at 20000 g for 15 min, and the supernatants were transferred to new tubes. Protein concentration of cell lysates was measured using the DC Protein Assay kit (BIO-RAD) following manufacturer's instructions. Cell lysates were mixed with reducing sample buffer (0.5 M Tris-HCl (pH 6.8), 43% glycerol, 9.2% SDS, 5% 2-mercaptoethanol, 5% bromophenol blue) and boiled for 5 min at 95°C. […]
Figure S5 Homo-degradation effect in Dual-ligand PROTACs. […] Subsequently, cell lysates were prepared and the protein levels of CRBN or VHL E3 ligase were assessed by Western blotting. […]

[2] = tested on: BRD2, BRD3, and BRD4 proteins; assay: Western blot BET protein degradation in HEK293 cells (screen, washout kinetics, proteasome rescue); type: cell-based, human; conditions: 4 h, 0.1 μM and 1 μM
Excerpt: as §1, §2, §3
4.2 Cell lines and culture […]
General method of Western blot: Lysates were sonicated and centrifuged at 4 °C at 20000 g for 15 min, and the supernatants were transferred to new tubes. Protein concentration of cell lysates was measured using the DC Protein Assay kit (BIO-RAD) following manufacturer's instructions. […]
Figure S1 Dual-ligand PROTACs induce target protein degradation in A549 cells. […] Subsequently, cells were lysed and BRD2, BRD3 and BRD4 protein levels were measured by Western blot. […]

T1 sequence (Q96SW2 whole entry): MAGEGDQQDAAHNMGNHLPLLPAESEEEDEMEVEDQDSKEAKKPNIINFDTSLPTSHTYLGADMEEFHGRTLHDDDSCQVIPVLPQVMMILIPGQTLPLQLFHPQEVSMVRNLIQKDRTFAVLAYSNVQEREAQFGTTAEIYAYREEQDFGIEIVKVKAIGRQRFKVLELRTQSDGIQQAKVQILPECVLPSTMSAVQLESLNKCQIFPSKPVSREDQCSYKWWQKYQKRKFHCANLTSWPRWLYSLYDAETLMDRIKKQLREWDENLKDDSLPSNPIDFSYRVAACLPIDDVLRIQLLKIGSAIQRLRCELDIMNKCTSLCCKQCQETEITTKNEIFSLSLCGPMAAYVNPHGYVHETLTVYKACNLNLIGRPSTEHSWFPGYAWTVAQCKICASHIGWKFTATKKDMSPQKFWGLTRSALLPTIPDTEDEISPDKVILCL

SMILES	CRBN level (homo-degradation) [1]	degradation efficiency versus single- and trivalent PROTACs [2]
Cc1sc2c(c1C)C(c1ccc(Cl)cc1)=N[C@@H](CC(=O)NCCOCCOCCNC(=O)C[C@H](NC(=O)COCCOCCOCCOCCn1cc(CCC(=O)N[C@@H](CC(=O)NCCOCCOCCNc3cccc4c3C(=O)N(C3CCC(=O)NC3=O)C4=O)C(=O)NCCOCCOCCNc3cccc4c3C(=O)N(C3CCC(=O)NC3=O)C4=O)nn1)C(=O)NCCOCCOCCNC(=O)C[C@@H]1N=C(c3ccc(Cl)cc3)c3c(sc(C)c3C)-n3c(C)nnc31)c1nnc(C)n1-2 (stereo partly drawn) [2J2P]	did not induce any significant decrease of CRBN	superior degradation efficiency
Cc1ncsc1-c1ccc(C(C)NC(=O)C2CC(O)CN2C(=O)C(NC(=O)COCCOCCNC(=O)CC(NC(=O)CCc2cn(CCOCCOCCOCCOCC(=O)NC(CC(=O)NCCOCCOCCNC(=O)CC3N=C(c4ccc(Cl)cc4)c4c(sc(C)c4C)-n4c(C)nnc43)C(=O)NCCOCCOCCNC(=O)CC3N=C(c4ccc(Cl)cc4)c4c(sc(C)c4C)-n4c(C)nnc43)nn2)C(=O)NCCOCCOCC(=O)NC(C(=O)N2CC(O)CC2C(=O)NC(C)c2ccc(-c3scnc3C)cc2)C(C)(C)C)C(C)(C)C)cc1 (stereo not drawn) [2J2V]		superior degradation efficiency
